Calls of active or inactive are those of the source.
What was measured:
[1] = molecular target: T1, Mannose-6-phosphate isomerase (Homo sapiens, UniProt P34949); assay: inhibitors of human PMI, primary screen, biochemical, fluorescence intensity, coupled assay (AID 1209)
T1 sequence (P34949 whole entry): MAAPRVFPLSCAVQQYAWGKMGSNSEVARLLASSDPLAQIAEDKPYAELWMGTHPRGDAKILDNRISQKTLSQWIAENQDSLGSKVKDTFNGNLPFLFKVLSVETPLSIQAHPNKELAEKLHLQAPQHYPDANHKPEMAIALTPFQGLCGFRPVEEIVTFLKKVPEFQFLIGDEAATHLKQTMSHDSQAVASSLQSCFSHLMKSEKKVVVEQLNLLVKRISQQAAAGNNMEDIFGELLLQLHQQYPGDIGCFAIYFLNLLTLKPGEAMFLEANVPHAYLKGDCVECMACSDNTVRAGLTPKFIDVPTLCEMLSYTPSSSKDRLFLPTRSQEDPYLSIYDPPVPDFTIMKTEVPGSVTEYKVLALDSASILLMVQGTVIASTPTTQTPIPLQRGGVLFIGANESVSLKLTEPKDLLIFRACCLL

[2] = molecular target: T2, Dual specificity protein phosphatase 6 (Rattus norvegicus, UniProt Q64346); assay: MKP-3 phosphatase inhibitors, primary screen, biochemical, rat enzyme, in vitro (AID 425)
T2 sequence (Q64346 whole entry): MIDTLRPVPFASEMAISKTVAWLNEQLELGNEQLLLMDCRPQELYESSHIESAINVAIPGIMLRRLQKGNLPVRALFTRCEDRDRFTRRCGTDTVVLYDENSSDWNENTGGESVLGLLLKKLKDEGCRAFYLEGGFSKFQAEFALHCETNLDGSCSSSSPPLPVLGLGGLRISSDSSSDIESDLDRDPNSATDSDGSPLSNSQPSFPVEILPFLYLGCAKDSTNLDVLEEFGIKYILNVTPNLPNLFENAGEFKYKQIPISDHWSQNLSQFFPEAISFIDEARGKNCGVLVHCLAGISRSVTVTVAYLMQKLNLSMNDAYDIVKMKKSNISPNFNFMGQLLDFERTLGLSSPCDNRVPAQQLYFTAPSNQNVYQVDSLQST

[3] = molecular target: Serine/threonine-protein kinase D2 (Homo sapiens, UniProt Q9BZL6); type: functional;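 also: measured against PRKD2 as one member of a kinome-wide kinase profiling panel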
[4] = molecular target: Ribosomal protein S6 kinase beta-1 (Homo sapiens, UniProt P23443); type: functional;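 also: measured as one member of a kinome-wide profiling panel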
[5] = molecular target: Calcium/calmodulin-dependent protein kinase type II subunit gamma (Homo sapiens, UniProt Q13555); type: functional
[6] = molecular target: Eukaryotic elongation factor 2 kinase (Homo sapiens, UniProt O00418); type: functional
Sequence of Eukaryotic elongation factor 2 kinase (O00418 whole entry): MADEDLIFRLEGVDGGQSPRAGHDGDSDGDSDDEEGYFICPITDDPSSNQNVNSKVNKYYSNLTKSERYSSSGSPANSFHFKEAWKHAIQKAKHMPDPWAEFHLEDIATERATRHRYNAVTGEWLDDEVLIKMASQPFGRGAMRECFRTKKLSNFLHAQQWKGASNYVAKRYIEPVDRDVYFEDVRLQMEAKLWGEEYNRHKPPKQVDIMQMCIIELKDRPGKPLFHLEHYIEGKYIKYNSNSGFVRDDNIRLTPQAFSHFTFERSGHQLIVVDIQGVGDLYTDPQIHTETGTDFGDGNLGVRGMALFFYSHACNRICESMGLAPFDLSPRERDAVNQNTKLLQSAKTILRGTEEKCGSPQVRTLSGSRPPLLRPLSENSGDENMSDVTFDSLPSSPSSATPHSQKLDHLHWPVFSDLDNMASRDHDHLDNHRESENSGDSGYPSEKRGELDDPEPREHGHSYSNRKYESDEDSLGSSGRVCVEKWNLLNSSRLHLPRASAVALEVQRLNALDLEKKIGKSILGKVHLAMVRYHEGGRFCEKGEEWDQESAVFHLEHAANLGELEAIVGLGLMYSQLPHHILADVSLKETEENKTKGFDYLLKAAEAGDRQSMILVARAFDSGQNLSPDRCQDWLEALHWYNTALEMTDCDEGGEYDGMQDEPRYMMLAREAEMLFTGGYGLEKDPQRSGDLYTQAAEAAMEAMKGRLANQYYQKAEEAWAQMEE

[7] = molecular target: Serine/threonine-protein kinase 17A (Homo sapiens, UniProt Q9UEE5); type: functional
Sequence of Serine/threonine-protein kinase 17A (Q9UEE5 whole entry): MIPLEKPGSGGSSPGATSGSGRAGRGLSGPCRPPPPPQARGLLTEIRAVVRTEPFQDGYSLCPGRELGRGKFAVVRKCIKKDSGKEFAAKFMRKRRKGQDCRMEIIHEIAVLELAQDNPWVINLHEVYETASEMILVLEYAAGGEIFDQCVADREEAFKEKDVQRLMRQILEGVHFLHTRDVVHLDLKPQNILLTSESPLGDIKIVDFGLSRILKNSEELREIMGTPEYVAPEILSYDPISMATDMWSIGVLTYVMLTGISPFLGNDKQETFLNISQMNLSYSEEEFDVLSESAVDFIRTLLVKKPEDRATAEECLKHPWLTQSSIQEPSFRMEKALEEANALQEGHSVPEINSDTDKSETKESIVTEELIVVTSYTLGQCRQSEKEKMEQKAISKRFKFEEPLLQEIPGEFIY

SRSF protein kinase 1 = SRSF protein kinase 1 (Homo sapiens, UniProt Q96SB4); type: functional;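 also: measured as one member of a kinome-wide kinase profiling panel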
[8] = molecular target: MAP kinase-activated protein kinase 2 (Homo sapiens, UniProt P49137); type: functional;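 also: measured as one member of a kinome-wide kinase panel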
[9] = molecular target: Mast/stem cell growth factor receptor Kit (Homo sapiens, UniProt P10721); type: functional;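 also: KIT entry within a kinase panel assay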
Sequence of Mast/stem cell growth factor receptor Kit (P10721 whole entry): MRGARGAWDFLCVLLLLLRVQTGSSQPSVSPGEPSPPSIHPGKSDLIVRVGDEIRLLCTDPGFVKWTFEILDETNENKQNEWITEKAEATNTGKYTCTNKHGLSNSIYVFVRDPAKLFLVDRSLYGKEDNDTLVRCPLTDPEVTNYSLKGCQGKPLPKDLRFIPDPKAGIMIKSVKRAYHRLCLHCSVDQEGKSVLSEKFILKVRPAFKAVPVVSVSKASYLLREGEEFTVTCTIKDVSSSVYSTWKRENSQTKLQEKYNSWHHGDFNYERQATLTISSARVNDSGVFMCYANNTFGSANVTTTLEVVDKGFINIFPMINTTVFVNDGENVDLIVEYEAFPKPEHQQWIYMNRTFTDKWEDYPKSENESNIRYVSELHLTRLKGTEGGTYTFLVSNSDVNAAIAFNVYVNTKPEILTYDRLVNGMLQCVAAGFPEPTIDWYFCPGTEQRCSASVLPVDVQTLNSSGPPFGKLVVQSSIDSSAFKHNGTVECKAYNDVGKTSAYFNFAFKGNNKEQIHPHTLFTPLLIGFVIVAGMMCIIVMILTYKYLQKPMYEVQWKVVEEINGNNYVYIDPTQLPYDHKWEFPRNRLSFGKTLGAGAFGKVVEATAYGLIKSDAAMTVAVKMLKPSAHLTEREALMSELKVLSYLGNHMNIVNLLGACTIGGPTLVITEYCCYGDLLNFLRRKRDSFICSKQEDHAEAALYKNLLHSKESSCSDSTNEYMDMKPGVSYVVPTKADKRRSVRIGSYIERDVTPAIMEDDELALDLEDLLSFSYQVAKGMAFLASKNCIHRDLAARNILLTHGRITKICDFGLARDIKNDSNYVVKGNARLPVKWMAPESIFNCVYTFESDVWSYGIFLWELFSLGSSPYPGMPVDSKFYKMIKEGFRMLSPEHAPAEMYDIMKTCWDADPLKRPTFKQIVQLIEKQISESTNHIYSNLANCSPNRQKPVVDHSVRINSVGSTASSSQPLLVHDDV

[10] = molecular target: Casein kinase II subunit alpha (Homo sapiens, UniProt P68400); type: functional
[11] = molecular target: Calcium/calmodulin-dependent protein kinase type II subunit delta (Homo sapiens, UniProt Q13557); type: functional
[12] = molecular target: MAP/microtubule affinity-regulating kinase 3 (Homo sapiens, UniProt P27448); type: functional;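 also: MARK3 affinity measured as one member of a kinome panel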
Ephrin type-A receptor 2 = Ephrin type-A receptor 2 (Homo sapiens, UniProt P29317); type: functional;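 also: EPHA2 tested as one member of a kinome-wide kinase panel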
Misshapen-like kinase 1 = Misshapen-like kinase 1 (Homo sapiens, UniProt Q8N4C8); type: functional;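 also: kinome panel screen with MINK as the panel member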
Sequence of Misshapen-like kinase 1 (Q8N4C8 whole entry): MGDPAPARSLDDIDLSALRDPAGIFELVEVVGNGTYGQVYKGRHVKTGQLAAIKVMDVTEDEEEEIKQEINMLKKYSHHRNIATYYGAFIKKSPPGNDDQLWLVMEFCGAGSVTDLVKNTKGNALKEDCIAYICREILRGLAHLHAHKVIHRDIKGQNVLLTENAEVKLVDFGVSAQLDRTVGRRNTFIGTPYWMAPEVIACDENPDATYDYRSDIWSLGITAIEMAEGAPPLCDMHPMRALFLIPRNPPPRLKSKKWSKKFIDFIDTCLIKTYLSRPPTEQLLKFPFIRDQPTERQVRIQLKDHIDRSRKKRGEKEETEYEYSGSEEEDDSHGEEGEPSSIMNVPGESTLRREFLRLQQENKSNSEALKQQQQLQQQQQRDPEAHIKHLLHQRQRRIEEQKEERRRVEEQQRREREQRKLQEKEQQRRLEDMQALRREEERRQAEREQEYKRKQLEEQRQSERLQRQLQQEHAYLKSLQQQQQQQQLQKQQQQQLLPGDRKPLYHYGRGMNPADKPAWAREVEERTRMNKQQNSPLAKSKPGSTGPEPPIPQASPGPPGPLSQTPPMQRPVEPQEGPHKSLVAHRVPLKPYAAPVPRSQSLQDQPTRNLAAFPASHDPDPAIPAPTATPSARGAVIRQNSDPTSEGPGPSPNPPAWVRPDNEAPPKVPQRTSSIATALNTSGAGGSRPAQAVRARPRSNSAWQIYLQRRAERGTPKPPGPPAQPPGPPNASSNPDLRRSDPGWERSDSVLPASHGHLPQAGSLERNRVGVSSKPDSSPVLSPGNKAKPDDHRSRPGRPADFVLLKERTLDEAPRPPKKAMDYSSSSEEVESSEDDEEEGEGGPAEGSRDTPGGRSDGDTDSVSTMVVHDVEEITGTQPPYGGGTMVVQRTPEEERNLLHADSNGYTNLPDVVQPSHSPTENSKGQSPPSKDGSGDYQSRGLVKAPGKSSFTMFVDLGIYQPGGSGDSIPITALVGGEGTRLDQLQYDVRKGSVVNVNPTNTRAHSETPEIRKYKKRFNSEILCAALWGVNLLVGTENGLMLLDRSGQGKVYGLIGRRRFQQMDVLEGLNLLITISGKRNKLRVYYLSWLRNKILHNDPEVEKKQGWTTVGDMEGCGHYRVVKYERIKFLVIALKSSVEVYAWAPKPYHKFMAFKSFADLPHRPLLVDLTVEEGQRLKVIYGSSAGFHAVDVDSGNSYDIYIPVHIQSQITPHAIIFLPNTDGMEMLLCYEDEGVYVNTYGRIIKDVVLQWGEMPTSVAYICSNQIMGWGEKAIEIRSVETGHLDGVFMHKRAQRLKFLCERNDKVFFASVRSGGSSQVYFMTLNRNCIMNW

[13] = molecular target: Vascular endothelial growth factor receptor 3 (Homo sapiens, UniProt P35916); type: functional;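 also: value from a kinome-wide profiling panel, with FLT4 as the panel member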
[14] = molecular target: Tyrosine-protein kinase Fer (Homo sapiens, UniProt P16591); type: functional;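 also: FER tested as one member of a kinome panel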
[15] = molecular target: Serine/threonine-protein kinase pim-2 (Homo sapiens, UniProt Q9P1W9); type: functional;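 also: value comes from a broad kinase panel profiling study in which PIM2 was one of the panel members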
Sequence of Serine/threonine-protein kinase pim-2 (Q9P1W9 whole entry): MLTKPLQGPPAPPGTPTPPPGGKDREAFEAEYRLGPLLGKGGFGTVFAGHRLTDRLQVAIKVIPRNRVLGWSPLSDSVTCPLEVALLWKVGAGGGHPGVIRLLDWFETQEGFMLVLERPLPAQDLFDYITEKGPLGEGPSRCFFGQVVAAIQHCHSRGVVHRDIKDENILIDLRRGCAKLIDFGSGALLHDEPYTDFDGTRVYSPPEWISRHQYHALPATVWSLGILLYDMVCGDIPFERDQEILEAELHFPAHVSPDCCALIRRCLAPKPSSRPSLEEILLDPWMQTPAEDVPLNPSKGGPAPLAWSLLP

[16] = molecular target: 3-phosphoinositide-dependent protein kinase 1 (Homo sapiens, UniProt O15530); type: functional;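 also: value comes from the Navigating the Kinome panel, PDPK1 member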
[17] = molecular target: Serine/threonine-protein kinase DCLK1 (Homo sapiens, UniProt O15075); type: functional;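 also: affinity for DCLK1 (listed as DCAMKL1) measured as one member of a kinome-wide kinase profiling panel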
[18] = molecular target: Serine/threonine-protein kinase PLK1 (Homo sapiens, UniProt P53350); type: functional;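 also: PLK1 measured as one member of a kinome-wide profiling panel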
[19] = molecular target: Serine/threonine-protein kinase MRCK alpha (Homo sapiens, UniProt Q5VT25); type: functional
[20] = molecular target: Proto-oncogene tyrosine-protein kinase receptor Ret (Homo sapiens, UniProt P07949); type: functional;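 also: measured within a kinome-wide profiling panel, RET as the panel member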
LIM domain kinase 1 = LIM domain kinase 1 (Homo sapiens, UniProt P53667); assay: Navigating the Kinome. Panel member name: LIMK1; type: functional
[21] = molecular target: Platelet-derived growth factor receptor beta (Homo sapiens, UniProt P09619); type: functional;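 also: value comes from a kinome panel, with PDGFRB tested as one panel member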
Sequence of Platelet-derived growth factor receptor beta (P09619 whole entry): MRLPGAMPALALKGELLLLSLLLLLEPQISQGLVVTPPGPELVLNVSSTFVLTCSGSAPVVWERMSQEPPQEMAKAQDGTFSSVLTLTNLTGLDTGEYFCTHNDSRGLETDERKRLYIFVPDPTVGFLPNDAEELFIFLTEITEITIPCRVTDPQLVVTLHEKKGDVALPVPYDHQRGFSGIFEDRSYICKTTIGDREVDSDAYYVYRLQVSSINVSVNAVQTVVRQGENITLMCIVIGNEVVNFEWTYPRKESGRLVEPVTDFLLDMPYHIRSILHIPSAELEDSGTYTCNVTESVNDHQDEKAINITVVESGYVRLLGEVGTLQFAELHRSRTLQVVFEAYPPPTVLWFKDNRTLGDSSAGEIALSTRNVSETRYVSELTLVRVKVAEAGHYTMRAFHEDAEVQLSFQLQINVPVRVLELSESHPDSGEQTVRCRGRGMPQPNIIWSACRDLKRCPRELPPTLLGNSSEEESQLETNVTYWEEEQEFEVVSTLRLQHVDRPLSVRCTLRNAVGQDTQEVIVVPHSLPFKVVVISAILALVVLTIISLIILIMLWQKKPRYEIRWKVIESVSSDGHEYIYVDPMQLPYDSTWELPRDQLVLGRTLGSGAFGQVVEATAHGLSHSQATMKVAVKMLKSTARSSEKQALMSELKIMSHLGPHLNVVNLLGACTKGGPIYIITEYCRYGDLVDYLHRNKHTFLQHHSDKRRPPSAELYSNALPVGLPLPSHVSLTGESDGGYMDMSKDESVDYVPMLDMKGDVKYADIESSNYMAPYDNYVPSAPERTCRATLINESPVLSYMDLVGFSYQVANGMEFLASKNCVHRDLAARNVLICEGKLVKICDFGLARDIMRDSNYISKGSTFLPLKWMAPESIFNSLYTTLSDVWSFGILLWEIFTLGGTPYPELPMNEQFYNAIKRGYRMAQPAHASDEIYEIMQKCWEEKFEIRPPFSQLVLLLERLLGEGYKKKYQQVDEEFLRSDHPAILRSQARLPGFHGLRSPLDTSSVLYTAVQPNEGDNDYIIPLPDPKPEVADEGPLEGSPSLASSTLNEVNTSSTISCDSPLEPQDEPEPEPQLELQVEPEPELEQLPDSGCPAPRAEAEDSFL

[22] = molecular target: Dual specificity tyrosine-phosphorylation-regulated kinase 1B (Homo sapiens, UniProt Q9Y463); assay: Navigating the Kinome. Panel member name: DYRK1B; type: functional
[23] = molecular target: Leucine-rich repeat serine/threonine-protein kinase 2 (Homo sapiens, UniProt Q5S007); type: functional;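 also: value from a broad kinome-wide panel profiling study in which LRRK2 was one of the kinases tested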
[24] = molecular target: Macrophage-stimulating protein receptor (Homo sapiens, UniProt Q04912); assay: Navigating the Kinome. Panel member name: MST1R; type: functional
[25] = molecular target: Dual specificity mitogen-activated protein kinase kinase 2 (Homo sapiens, UniProt P36507); assay: Navigating the Kinome. Panel member name: MAP2K2; type: functional
[26] = molecular target: Inhibitor of nuclear factor kappa-B kinase subunit epsilon (Homo sapiens, UniProt Q14164); assay: Navigating the Kinome. Panel member name: IKBKE; type: functional
[27] = molecular target: Mitogen-activated protein kinase 14 (Homo sapiens, UniProt Q16539); type: functional;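 also: part of a kinome-wide panel, MAPK14 entry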

COc1ccc(-n2c(NC(=O)c3ccco3)c(C#N)c3nc4ccccc4nc32)cc1
> 50000 nM (not active): IC50 [1]
> 100000 nM (not active): IC50 [2]

Cc1n[nH]c2ccc(-c3cncc(OCC(N)Cc4ccc(Cl)c(Cl)c4)c3)cc12 (stereo unspecified)
inactive: Ki (SRSF protein kinase 1) > 5010 nM | Ki [9] > 1260 nM | Ki [10] > 6310 nM | Ki (Ephrin type-A receptor 2) > 3160 nM | Ki [18] > 7940 nM
active: Ki [3] 31.6 nM | Ki [4] 25.1 nM | Ki [5] 15.8 nM | Ki [6] 3160 nM | Ki [7] 398 nM | Ki [8] 3980 nM | Ki [11] 12.6 nM | Ki [12] 316 nM | Ki (Misshapen-like kinase 1) 20 nM | Ki [13] 1580 nM | Ki [14] 1260 nM | Ki [15] 12.6 nM | Ki [16] 2000 nM | Ki [17] 2000 nM | Ki [19] 7.94 nM

[2H]C([2H])([2H])Oc1cccc(C(C)NC(=O)c2sc(-c3ccncc3)nc2C)c1 (stereo unspecified)
inactive: Ki [20] > 3160 nM | Ki (LIM domain kinase 1) > 3160 nM | Ki [21] > 2000 nM | Ki [22] > 2510 nM | Ki [23] > 2510 nM | Ki [24] > 3980 nM | Ki [25] > 3980 nM | Ki [26] > 3160 nM | Ki [27] > 3980 nM
